According to the supplement of paper PMC10307832:

What was measured:
Experiment in all cases: relative viability (nuclei count vs DMSO), 5 days (fraction); higher = more cells survive
NCI-H650 = test system: NCI-H650
Summary of the method: (§1)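 Cells from lung cancer lines were seeded into 1536-well plates and, one day later, dosed by pin tool. Treatments were either a single drug or a fixed dose of an anchor drug with five library-drug doses (not always all listed) in √10 steps. After 5 days, nuclei were stained in a one-step fixation (final 0.05% Triton X-100, 1% formaldehyde, 1 ug/ml Hoechst) and counted on 4× images, and relative viability is the treated-to-vehicle nuclei ratio, as the median of duplicate plates.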

LOU-NH91 = test system: LOU-NH91
Summary of the method: as §1

NCI-H1755 = test system: NCI-H1755
Summary of the method: as §1

HARA = test system: HARA
Summary of the method: as §1

NCI-H2170 = test system: NCI-H2170
Summary of the method: as §1

NCI-H23 = test system: NCI-H23
Summary of the method: as §1

PC-3 [JPC-3] = test system: PC-3 [JPC-3]
Summary of the method: as §1

NCI-H2126 = test system: NCI-H2126
Summary of the method: as §1

BEN = test system: BEN
Summary of the method: as §1

NCI-H2023 = test system: NCI-H2023
Summary of the method: as §1

NCI-H441 = test system: NCI-H441
Summary of the method: as §1

LCLC-97TM1 = conditions: first compound 0.08 µM
Summary of the method: as §1

With `O=c1[nH]c2ccccc2n1C1CCN(CCCC(c2ccc(F)cc2)c2ccc(F)cc2)CC1` [Pimozide] + CC(=O)c1c(C)c2cnc(Nc3ccc(N4CCNCC4)cn3)nc2n(C2CCCC2)c1=O [Palbociclib] (partner 0.5 µM) the relative viability (NCI-H650; first compound 0.08 µM) was 0.396, the relative viability (NCI-H650; first compound 0.253 µM) was 0.313 and the relative viability (NCI-H650; first compound 0.8 µM) was 0.331. The relative viability (NCI-H650; first compound 2.53 µM) was 0.313, the relative viability (NCI-H650; first compound 8 µM) was 0.291 and the relative viability (LOU-NH91; first compound 0.08 µM) was 0.525. The relative viability (LOU-NH91; first compound 0.253 µM) was 0.404, the relative viability (LOU-NH91; first compound 0.8 µM) was 0.443 and the relative viability (LOU-NH91; first compound 2.53 µM) was 0.558. The relative viability (LOU-NH91; first compound 8 µM) was 0.539, the relative viability (NCI-H1755; first compound 0.08 µM) was 0.448 and the relative viability (NCI-H1755; first compound 0.253 µM) was 0.337. The relative viability (NCI-H1755; first compound 0.8 µM) was 0.447, the relative viability (NCI-H1755; first compound 2.53 µM) was 0.416 and the relative viability (NCI-H1755; first compound 8 µM) was 0.46. It also gave a relative viability (HARA; first compound 0.08 µM) of 0.278, a relative viability (HARA; first compound 0.253 µM) of 0.263 and a relative viability (HARA; first compound 0.8 µM) of 0.22. For the same compound, the relative viability (HARA; first compound 2.53 µM) was 0.255, the relative viability (HARA; first compound 8 µM) was 0.178 and the relative viability (NCI-H2170; first compound 0.08 µM) was 0.384. It also gave a relative viability (NCI-H2170; first compound 0.253 µM) of 0.363, a relative viability (NCI-H2170; first compound 0.8 µM) of 0.365 and a relative viability (NCI-H2170; first compound 2.53 µM) of 0.358. The relative viability (NCI-H2170; first compound 8 µM) was 0.369, the relative viability (NCI-H23; first compound 0.08 µM) was 0.454 and the relative viability (NCI-H23; first compound 0.253 µM) was 0.525. The relative viability (NCI-H23; first compound 0.8 µM) was 0.435, the relative viability (NCI-H23; first compound 2.53 µM) was 0.445 and the relative viability (NCI-H23; first compound 8 µM) was 0.553. It also gave a relative viability (PC-3 [JPC-3]; first compound 0.253 µM) of 0.551, a relative viability (PC-3 [JPC-3]; first compound 0.8 µM) of 0.481 and a relative viability (PC-3 [JPC-3]; first compound 2.53 µM) of 0.544. It also gave a relative viability (PC-3 [JPC-3]; first compound 8 µM) of 0.509, a relative viability (NCI-H2126; first compound 0.08 µM) of 0.373 and a relative viability (NCI-H2126; first compound 0.253 µM) of 0.321. The relative viability (NCI-H2126; first compound 0.8 µM) was 0.369, the relative viability (NCI-H2126; first compound 2.53 µM) was 0.363 and the relative viability (NCI-H2126; first compound 8 µM) was 0.365. It also gave a relative viability (BEN; first compound 0.08 µM) of 0.442, a relative viability (BEN; first compound 0.253 µM) of 0.472 and a relative viability (BEN; first compound 0.8 µM) of 0.451. For the same compound, the relative viability (BEN; first compound 2.53 µM) was 0.457, the relative viability (BEN; first compound 8 µM) was 0.494 and the relative viability (NCI-H2023; first compound 0.08 µM) was 0.337. For the same compound, the relative viability (NCI-H2023; first compound 0.253 µM) was 0.39, the relative viability (NCI-H2023; first compound 0.8 µM) was 0.341 and the relative viability (NCI-H2023; first compound 2.53 µM) was 0.333. It also gave a relative viability (NCI-H2023; first compound 8 µM) of 0.245, a relative viability (NCI-H441; first compound 0.08 µM) of 0.273 and a relative viability (NCI-H441; first compound 0.253 µM) of 0.252. It also gave a relative viability (NCI-H441; first compound 0.8 µM) of 0.162, a relative viability (NCI-H441; first compound 2.53 µM) of 0.218 and a relative viability (NCI-H441; first compound 8 µM) of 0.208. The relative viability (LCLC-97TM1) was 0.203.
